The subject of test [1] is A2780 cells. Put plainly: In-vitro cell proliferation assay (SRB), A2780 cells. Type of test: cell-based. Particulars: Homo sapiens, A2780, 72 h, A2780 cells, 72 hours, SRB; read-out: A2780 IC50. Here is the method:
In-Vitro Cell Proliferation Assay
After overnight incubation at 37° C. and 5% CO2, the compound titrations were performed in a separate dilution plate by serially diluting the compounds in DMSO to make a 1000× stock. The compounds were then further diluted to 10× final concentration in culture media, whereupon 20 μL of each dilution was added to the plated cells with controls (e.g. DMSO and blank) to make a final volume of 200 μL. The final DMSO concentration in each well was 0.1%. The plates were then incubated for 72 hours at 37° C. in a 5% CO2 incubator. The number of viable cells was then assessed using sulforhodamine B (SRB) assay. Cells were fixed at 4° C. for 1 hour with the addition of 50 μL 30% trichloroacetic acid (TCA) to make a final concentration of 6% TCA. The plates were washed four times with H2O and allowed to dry for at least 1 hour, whereupon 100 μL of a 4% SRB in 1% acetic acid solution was added to each well and incubated at room temperature for at least 30 minutes. The plates were then washed three times with 1% acetic acid, dried, and treated with 100 μL of 10 mM Tris-Base solution. The plates were then read in a microplate reader at an absorbance of 570 nm. Background was generated on a separate plate with media only.
Method for Determining % Inhibition
First, the signals from the background plate are averaged, then the background was subtracted from the test plates.
wherein X denotes the compound concentration 1, Y denotes the compound concentration 2, XX denotes the % inhibition at compound concentration 1 (X), and YY denotes the % inhibition at compound concentration 2 (Y).

Test [2] deals with T1, NAMPT (Homo sapiens, UniProt P43490).
T1 construct: His tag; host or cells: E. coli
Put plainly: Biochemical inhibition assay: NAMPT enzymatic reaction, NMN quantified by mass spectrometry. Particulars: NAMPT enzymatic assay; read-out: Biochem IC50. As to the method: Biochemical Inhibition Assay
NAMPT Protein Purification
Recombinant His-tagged NAMPT was produced in E. coli cells, purified over a Ni column, and further purified over a size-exclusion column by XTAL Biostructures.
The NAMPT Enzymatic Reaction
The NAMPT enzymatic reactions were carried out in Buffer A (50 mM Hepes pH 7.5, 50 mM NaCl, 5 mM MgCl2, and 1 mM THP) in 96-well V-bottom plates. The compound titrations were performed in a separate dilution plate by serially diluting the compounds in DMSO to make a 100× stock. […] The compound and enzyme mix was incubated for 15 minutes at room temperature, then 10 μL of 10× substrate and co-factors in Buffer A were added to the test well to make a final concentration of 1 μM NAM, 100 μM 5-Phospho-D-ribose 1-diphosphate (PRPP), and 2.5 mM Adenosine 5′-triphosphate (ATP). The reaction was allowed to proceed for 30 minutes at room temperature, then was quenched with the addition of 11 μL of a solution of formic acid and L-Cystathionine to make a final concentration of 1% formic acid and 10 μM L-Cystathionine. Background and signal strength was determined by addition (or non-addition) of a serial dilution of NMN to a pre-quenched enzyme and cofactor mix.
A mass spectrometry-based assay was used to measure the NAMPT reaction product (NMN) and the internal control (L-Cystathionine). NMN and L-Cystathionine were detected using the services of Biocius Lifesciences with the RapidFire system. In short, the NMN and L-Cystathionine are bound to a graphitic carbon cartridge in 0.1% formic acid, eluted in 30% acetonitrile buffer, and injected into a Sciex 4000 mass spectrometer. The components of the sample were ionized with electrospray ionization and the positive ions were detected. […] The fragments are quantified and the analyzed by the following method.
First the NMN signal is normalized to the L-Cystathionine signal by dividing the NMN signal by the L-Cystathionine signal for each well. The signal from the background wells are averaged and subtracted from the test plates. […] IC50s are Determined Using Excel and this Formula.

T1 sequence (P43490 whole entry): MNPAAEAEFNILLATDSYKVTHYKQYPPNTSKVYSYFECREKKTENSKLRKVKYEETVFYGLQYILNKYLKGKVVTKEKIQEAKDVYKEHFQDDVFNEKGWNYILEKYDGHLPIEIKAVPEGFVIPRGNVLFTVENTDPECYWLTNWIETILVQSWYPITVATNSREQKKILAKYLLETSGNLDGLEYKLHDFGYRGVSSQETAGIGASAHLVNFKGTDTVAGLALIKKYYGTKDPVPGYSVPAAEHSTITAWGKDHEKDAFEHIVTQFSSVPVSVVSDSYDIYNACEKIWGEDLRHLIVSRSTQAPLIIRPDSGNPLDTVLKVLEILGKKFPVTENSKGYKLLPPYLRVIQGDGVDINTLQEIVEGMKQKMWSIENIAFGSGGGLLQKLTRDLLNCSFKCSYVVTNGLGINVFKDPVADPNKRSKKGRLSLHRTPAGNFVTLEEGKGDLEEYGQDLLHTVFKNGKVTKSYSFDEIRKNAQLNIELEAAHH

What is called IC50 is the point on the concentration scale where inhibition reaches its midpoint. For the compound `O=C(NCc1ccc(S(=O)(=O)c2ccc(C(F)(F)F)cc2F)cc1)c1cc2ccncc2s1`, the results for the IC50 in test [1] and in test [2] were 42.3 nM and 20.2 nM, respectively.
`O=C(NCc1ccc(S(=O)(=O)c2ccc(C(F)(F)F)cc2F)cc1)c1ccc2nccn2c1`: the half-maximal inhibitory concentration (IC50) in test [1] was determined as 15.7 nM; in test [2] it was 15.6 nM.
Consider `COc1c(C(F)(F)F)cccc1S(=O)(=O)c1ccc(CNC(=O)c2ccc3nccn3c2)cc1`, for which the concentration for half-maximal inhibition (IC50) came out at 14.8 nM in test [1] and 21.9 nM in test [2].
The corresponding values for `COc1c(C(F)(F)F)cccc1S(=O)(=O)c1ccc(CNC(=O)c2cc3ccncc3s2)cc1` are 12.8 nM and 9.4 nM.
The like results for `COc1cc(-n2cccn2)ccc1S(=O)(=O)c1ccc(CNC(=O)c2cnc3[nH]ncc3c2)cc1` were, in that order, 9.4 nM and 24.2 nM.
The like results for `COc1cc(-n2cccn2)ccc1S(=O)(=O)c1ccc(CNC(=O)c2cc3ccncc3o2)cc1` were, in that order, 6 nM and 6.5 nM.
As to `COc1cc(C(F)(F)F)ccc1S(=O)(=O)c1ccc(CNC(=O)c2cnc3[nH]ncc3c2)cc1`, the IC50 worked out at 28.1 nM in test [1] and 120 nM in test [2].
The corresponding values for `COc1cc(C(F)(F)F)ccc1S(=O)(=O)c1ccc(CNC(=O)c2cnc3nccn3c2)cc1` are 22.4 nM and 4.4 nM.
The corresponding values for `COc1ccc(C(C)C)cc1S(=O)(=O)c1ccc(CNC(=O)c2cc3ccncc3o2)cc1` are 12.4 nM and 15.4 nM.
The like results for `COc1ccc(C(C)C)cc1S(=O)(=O)c1ccc(CNC(=O)c2ccc3nccn3c2)cc1` were, in that order, 6.4 nM and 35.2 nM.
For the compound `COc1ccc(OC(F)(F)F)cc1S(=O)(=O)c1ccc(CNC(=O)c2cnc3[nH]ncc3c2)cc1`, the concentration for half-maximal inhibition (IC50) amounted to 24.6 nM in test [1] and 92.6 nM in test [2].
For `COc1ccc(OC(F)(F)F)cc1S(=O)(=O)c1ccc(CNC(=O)c2ccc3nccn3c2)cc1`, the IC50 came to 14.4 nM in test [1] and 67.7 nM in test [2].
The corresponding values for `COc1ccc(OC(F)(F)F)cc1S(=O)(=O)c1ccc(CNC(=O)c2cc3cnccc3[nH]2)cc1` are 6.6 nM and 48.1 nM.
Take `COc1ccc(OC(F)(F)F)cc1S(=O)(=O)c1ccc(CNC(=O)c2cnc3nccn3c2)cc1`: the values for the IC50 in test [1] and in test [2] were 5.8 nM and < 0.65 nM, respectively.
Take `COc1ccc(C(F)(F)F)cc1S(=O)(=O)c1ccc(CNC(=O)c2cnc3nccn3c2)cc1`: the IC50 in test [1] came to 3.6 nM; in test [2], 6.8 nM.
The like results for `Cc1cc(-n2cccn2)ccc1S(=O)(=O)c1ccc(CNC(=O)c2cc3ccncc3o2)cc1` were, in that order, 6 nM and 6.2 nM.
`Cc1cc(-n2cccn2)ccc1S(=O)(=O)c1ccc(CNC(=O)c2cc3ccncc3s2)cc1`: the results for the IC50 in test [1] and in test [2] were 3.1 nM and 1.5 nM, respectively.
The corresponding values for `Cc1cc(-n2cccn2)ccc1S(=O)(=O)c1ccc(CNC(=O)c2cnc3[nH]ncc3c2)cc1` are 23.5 nM and 27.1 nM.
The like results for `Cc1cc(C(F)(F)F)ccc1S(=O)(=O)c1ccc(CNC(=O)c2ccc3nccn3c2)cc1` were, in that order, 16.6 nM and 24.7 nM.
The like results for `Cc1cc(C(F)(F)F)ccc1S(=O)(=O)c1ccc(CNC(=O)c2cc3ccncc3o2)cc1` were, in that order, 63.1 nM and 34.5 nM.
For `Cc1cc(C(F)(F)F)ccc1S(=O)(=O)c1ccc(CNC(=O)c2cnc3nccn3c2)cc1`, the values for the concentration for half-maximal inhibition (IC50) in test [1] and in test [2] were 51.1 nM and 7.1 nM, respectively.
The corresponding values for `Cc1cc(C(F)(F)F)ccc1S(=O)(=O)c1ccc(CNC(=O)c2cc3cnccc3[nH]2)cc1` are 25.3 nM and 30.5 nM.
The corresponding values for `Cc1cc(C(F)(F)F)ccc1S(=O)(=O)c1ccc(CNC(=O)c2cc3ccncc3s2)cc1` are 24.2 nM and 10.3 nM.
The like results for `O=C(NCc1ccc(S(=O)(=O)c2cccc(-n3cccn3)c2)cc1)c1cc2ccncc2o1` were, in that order, 9.1 nM and 7.5 nM.
As for `O=C(NCc1ccc(S(=O)(=O)c2cccc(-n3cccn3)c2)cc1)c1ccc2nccn2c1`, the IC50 was 6.2 nM in test [1] and 4.8 nM in test [2].
The corresponding values for `CC(C)COc1cccc(S(=O)(=O)c2ccc(CNC(=O)c3cnc4nccn4c3)cc2)c1` are 13.2 nM and 3.9 nM.
The like results for `CC(C)COc1cccc(S(=O)(=O)c2ccc(CNC(=O)c3ccc4nccn4c3)cc2)c1` were, in that order, 10.6 nM and 15.7 nM.
The corresponding values for `CC(C)COc1cccc(S(=O)(=O)c2ccc(CNC(=O)c3cc4ccncc4o3)cc2)c1` are 67.7 nM and 14.8 nM.
On to `CC(C)COc1cccc(S(=O)(=O)c2ccc(CNC(=O)c3cnc4[nH]ncc4c3)cc2)c1`, for which the concentration for half-maximal inhibition (IC50) in test [1] was 34.2 nM; in test [2] it was 28.5 nM.
For the compound `O=C(NCc1ccc(S(=O)(=O)c2cccc(OCC(F)(F)F)c2)cc1)c1cnc2nccn2c1`, the IC50 stood at 11.4 nM in test [1] and 5.5 nM in test [2].
The corresponding values for `O=C(NCc1ccc(S(=O)(=O)c2cccc(OCC(F)(F)F)c2)cc1)c1ccc2nccn2c1` are 5.9 nM and 15 nM.
The like results for `Cc1cc(C)n(-c2cccc(S(=O)(=O)c3ccc(CNC(=O)c4cc5cc(O)ccc5[nH]4)cc3)c2)n1` were, in that order, 100 to 1000 nM and 100 to 1000 nM.
The corresponding values for `Cc1cc(C)n(-c2cccc(S(=O)(=O)c3ccc(CNC(=O)c4cnc5nccn5c4)cc3)c2)n1` are 4.1 nM and 1.8 nM.
On to `Cc1cc(C)n(-c2cccc(S(=O)(=O)c3ccc(CNC(=O)c4ccc5nccn5c4)cc3)c2)n1`, for which the half-maximal inhibitory concentration (IC50) in test [1] stood at 0.8 nM; in test [2], 7.2 nM.
Take `Cc1cc(C)n(-c2cccc(S(=O)(=O)c3ccc(CNC(=O)c4cc5cnccc5[nH]4)cc3)c2)n1`: the half-inhibitory concentration (IC50) in test [1] was found to be 1.6 nM; in test [2], 13.2 nM.
The corresponding values for `Cc1cc(C)n(-c2cccc(S(=O)(=O)c3ccc(CNC(=O)c4ccc5ncsc5c4)cc3)c2)n1` are 100 to 1000 nM and 17.9 nM.
The like results for `Cc1cc(C)n(-c2cccc(S(=O)(=O)c3ccc(CNC(=O)c4cc5ccncc5s4)cc3)c2)n1` were, in that order, 1.5 nM and 3.1 nM.
The like results for `Cc1cc(C)n(-c2cccc(S(=O)(=O)c3ccc(CNC(=O)c4cc5ccncc5o4)cc3)c2)n1` were, in that order, 3.5 nM and 7.1 nM.
Turning to `Cc1cc(C)n(-c2cccc(S(=O)(=O)c3ccc(CNC(=O)c4cnc5[nH]ncc5c4)cc3)c2)n1`, the IC50 was found to be 5.3 nM in test [1] and 25.3 nM in test [2].
`O=C(NCc1ccc(S(=O)(=O)c2cccc(Oc3ccc(F)cc3)c2)cc1)c1ccc2nccn2c1`: the figures for the IC50 in test [1] and in test [2] were 34 nM and 15.1 nM, respectively.
The corresponding values for `O=C(NCc1ccc(S(=O)(=O)c2cccc(Oc3ccc(F)cc3)c2)cc1)c1cc2ccncc2s1` are 65.6 nM and 2.6 nM.
Turning to `Cc1nc(-c2cccc(S(=O)(=O)c3ccc(CNC(=O)c4cc5ccncc5s4)cc3)c2)no1`, the IC50 in test [1] came out at 1 nM; in test [2] it was 3.3 nM.
The like results for `Cc1nc(-c2cccc(S(=O)(=O)c3ccc(CNC(=O)c4cnc5nccn5c4)cc3)c2)no1` were, in that order, 2.3 nM and 2.8 nM.
The corresponding values for `O=C(NCc1ccc(S(=O)(=O)c2cccc(C(=O)NC3CCCC3)c2)cc1)c1ccc2nccn2c1` are 16.2 nM and 10.3 nM.
The like results for `O=C(NC1CCCC1)c1cccc(S(=O)(=O)c2ccc(CNC(=O)c3cc4ccncc4s3)cc2)c1` were, in that order, 13.8 nM and 4.8 nM.
Take `O=C(NCc1ccc(S(=O)(=O)c2cccc(C(=O)NC3CCCC3)c2)cc1)c1cnc2nccn2c1`: the values for the IC50 in test [1] and in test [2] were 48.3 nM and 4.7 nM, respectively.

The record behind these values is patent US12336981B2, “Compounds and compositions for the inhibition of NAMPT” (Valo Health, Inc., priority 2010, dated 2025).
